Measurements as given in US11702422B2, “Imidazopyridazines as modulators of IL-17” (Janssen Pharmaceutica NV, priority 2020, dated 2023).

Columns and labels:
[1] = system: IL-17A-induced G-CSF production in human normal keratinocyte (NHK); experiment: NHK Assay: IL-17A-induced G-CSF production in human normal keratinocytes; assay type: cell-based; conditions: 24 h, adult normal human keratinocytes, IL-17A 5 ng/mL, simple average if tested more than once
In short: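 Adult NHK, 3000-4000 cells/well; rhIL-17A + titrated cpd preincubated 1 h rt, then onto cells. Final: IL-17A 5 ng/mL, DMSO 0.2%, 5% FBS. 24 h, 37° C. G-CSF in supernatant by HTRF vs standard curve; IC50. Viability by CellTiter-Glo vs DMSO.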

[2] = target: IL-17A(FLAG-Tagged): IL-17RA(His-Tagged) (Homo sapiens, UniProt Q16552, K93Q); experiment: IL-17A(FLAG-Tagged): IL-17RA(His-Tagged) Binding Disruption Eu-HTRF Assay; conditions: IL-17A/IL-17RA binding disruption, simple average if tested more than once
In short: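 IC50 comes from a one-site competition fit of the HTRF 665/620 nm ratio. Compound dilutions (2-fold, 22 points) were held 1 h rt with FLAG-tagged IL-17A dimer, then His-tagged IL-17RA plus Eu-cryptate anti-FLAG and D2 anti-His antibodies were added for 2 h rt.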

Chain of UniProt Q16552 (Q16552 with tags, fused parts or gaps K93Q): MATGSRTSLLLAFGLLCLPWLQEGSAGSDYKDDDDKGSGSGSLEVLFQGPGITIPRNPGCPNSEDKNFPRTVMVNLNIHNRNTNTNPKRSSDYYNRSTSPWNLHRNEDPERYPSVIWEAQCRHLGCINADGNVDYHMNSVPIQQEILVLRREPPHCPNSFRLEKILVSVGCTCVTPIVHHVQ

Compound | IC50 ([1]; Homo sapiens, Keratinocyte) [nM] | IC50 [2] [nM] | IC50 [1] [nM]
N#CC1(C(NC(=O)C(F)(F)CC2CC2)c2cnn3cc([C@@H](NC(=O)c4nonc4C4CC4)C4CCC(F)(F)CC4)nc3c2)CC1 (single isomer, unassigned) [Example 436, N—((S)-(7-((R*)-(1-Cyanocyclopropyl)(3-cyclopropyl-2,2-difluoropropanamido)methyl)imidazo[1,2-b]pyridazin-2-yl)(4,4-difluorocyclohexyl)methyl)-4-cyclopropyl-1,2,5-oxadiazole-3-carboxamide] | > 20000 | 1300 | 
CC(C)n1nccc1C(=O)N[C@H](c1cn2ncc(C(NC(=O)C(F)(F)CC3CC3)C3(C#N)CC3)cc2n1)C1CCC(F)(F)CC1 (single isomer, unassigned) [Example 437, N—((S)-(7-((R*)-(1-Cyanocyclopropyl)(3-cyclopropyl-2,2-difluoropropanamido)methyl)imidazo[1,2-b]pyridazin-2-yl)(4,4-difluorocyclohexyl)methyl)-1-isopropyl-1H-pyrazole-5-carboxamide] | > 20000 | 3800 | 
Cc1nonc1C(=O)N[C@H](c1cn2ncc(C(CC3CCC3)NC(=O)CC3CC(F)(F)C3)cc2n1)C1CCC(F)(F)CC1 (single isomer, unassigned) [Example 438, N—((S)-(7-((R*)-2-Cyclobutyl-1-(2-(3,3-difluorocyclobutyl)acetamido)ethyl)imidazo[1,2-b]pyridazin-2-yl)(4,4-difluorocyclohexyl)methyl)-4-methyl-1,2,5-oxadiazole-3-carboxamide] |  | 470 | 8000
Cc1nonc1C(=O)N[C@H](c1cn2ncc(C(CC3CCC3)NC(=O)CC3CC(F)(F)C3)cc2n1)C1CCC(F)(F)CC1 (single isomer, unassigned) [Example 439, N—((S)-(7-((S*)-2-Cyclobutyl-1-(2-(3,3-difluorocyclobutyl)acetamido)ethyl)imidazo[1,2-b]pyridazin-2-yl)(4,4-difluorocyclohexyl)methyl)-4-methyl-1,2,5-oxadiazole-3-carboxamide] |  | 99 | 150
CC(C)n1nccc1C(=O)N[C@H](c1cn2ncc(C(CC3CCC3)NC(=O)CC3CC(F)(F)C3)cc2n1)C1CCC(F)(F)CC1 (single isomer, unassigned) [Example 440, N—((S)-(7-((R*)-2-Cyclobutyl-1-(2-(3,3-difluorocyclobutyl)acetamido)ethyl)imidazo[1,2-b]pyridazin-2-yl)(4,4-difluorocyclohexyl)methyl)-1-isopropyl-1H-pyrazole-5-carboxamide] |  | 92 | 59
CC(C)n1nccc1C(=O)N[C@H](c1cn2ncc(C(NC(=O)CC3CC(F)(F)C3)C(C)(C)O)cc2n1)C1CCC(F)(F)CC1 (single isomer, unassigned) [Example 444, N—((S)-(7-((R*)-1-(2-(3,3-Difluorocyclobutyl)acetamido)-2-hydroxy-2-methylpropyl)imidazo[1,2-b]pyridazin-2-yl)(4,4-difluorocyclohexyl)methyl)-1-isopropyl-1H-pyrazole-5-carboxamide] |  | 2300 | 11000
Cc1nonc1C(=O)N[C@H](c1cn2ncc(C(NC(=O)CC3CC(F)(F)C3)C(C)(C)O)cc2n1)C1CCC(F)(F)CC1 (single isomer, unassigned) [Example 445, N—((S)-(7-((R*)-1-(2-(3,3-Difluorocyclobutyl)acetamido)-2-hydroxy-2-methylpropyl)imidazo[1,2-b]pyridazin-2-yl)(4,4-difluorocyclohexyl)methyl)-4-methyl-1,2,5-oxadiazole-3-carboxamide] |  | 5800 | > 20000
Cc1nonc1C(=O)N[C@H](c1cn2ncc(C(CC#N)NC(=O)CC3CC(F)(F)C3)cc2n1)C1CCC(F)(F)CC1 (single isomer, unassigned) [Example 446, N—((S)-(7-((R*)-2-Cyano-1-(2-(3,3-difluorocyclobutyl)acetamido)ethyl)imidazo[1,2-b]pyridazin-2-yl)(4,4-difluorocyclohexyl)methyl)-4-methyl-1,2,5-oxadiazole-3-carboxamide] |  | 710 | 8800
CC(C)n1nccc1C(=O)N[C@H](c1cn2ncc(C(CC#N)NC(=O)CC3CC(F)(F)C3)cc2n1)C1CCC(F)(F)CC1 (single isomer, unassigned) [Example 447, N—((S)-(7-((R*)-2-Cyano-1-(2-(3,3-difluorocyclobutyl)acetamido)ethyl)imidazo[1,2-b]pyridazin-2-yl)(4,4-difluorocyclohexyl)methyl)-1-isopropyl-1H-pyrazole-5-carboxamide] |  | 300 | 1100
N#CC1([C@@H](NC(=O)C[C@H]2CC2(F)F)c2cnn3cc([C@@H](NC(=O)c4nonc4C4CC4)C4CCC(F)(F)CC4)nc3c2)CCC1 (single isomer, unassigned) [Example 448] | 12 | 35 | 
O=C(CCC(F)(F)F)NC(c1cnn2cc([C@@H](NC(=O)c3nnsc3C3CC3)C3CCC(F)(F)CC3)nc2c1)C1CC1 (single isomer, unassigned) [Example 466, 5-Cyclopropyl-N—((S)-(7-((R*)-cyclopropyl(4,4,4-trifluorobutanamido)methyl)imidazo[1,2-b]pyridazin-2-yl)(4,4-difluorocyclohexyl)methyl)-1,2,3-thiadiazole-4-carboxamide] | 210 | 34 | 
Cc1nsnc1C(=O)N[C@H](c1cn2ncc(C(NC(=O)CCC(F)(F)F)C3CC3)cc2n1)C1CCC(F)(F)CC1 (single isomer, unassigned) [Example 467, N—((S)-(7-((R*)-Cyclopropyl(4,4,4-trifluorobutanamido)methyl)imidazo[1,2-b]pyridazin-2-yl)(4,4-difluorocyclohexyl)methyl)-4-methyl-1,2,5-thiadiazole-3-carboxamide] | 360 | 58 | 
CC(C)n1nccc1C(=O)N[C@H](c1cn2ncc(C(NC(=O)CCC(F)(F)F)C3CCC3)cc2n1)C1CCC(F)(F)CC1 (single isomer, unassigned) [Example 490, N—((S)-(7-((R*)-Cyclobutyl(4,4,4-trifluorobutanamido)methyl)imidazo[1,2-b]pyridazin-2-yl)(4,4-difluorocyclohexyl)methyl)-1-isopropyl-1H-pyrazole-5-carboxamide] | 67 | 150 | 
Cc1nonc1C(=O)N[C@H](c1cn2ncc(C(NC(=O)CCC(F)(F)F)C3CCC3)cc2n1)C1CCC(F)(F)CC1 (single isomer, unassigned) [Example 491, N—((S)-(7-((R*)-Cyclobutyl(4,4,4-trifluorobutanamido)methyl)imidazo[1,2-b]pyridazin-2-yl)(4,4-difluorocyclohexyl)methyl)-4-methyl-1,2,5-oxadiazole-3-carboxamide] | 85 | 39 | 
[2H]C([2H])([2H])n1nccc1C(=O)N[C@H](c1cn2ncc(C(NC(=O)CCC(F)(F)F)C3CCC3)cc2n1)C1CCC(F)(F)CC1 (single isomer, unassigned) [Example 492, N—((S)-(7-((R*)-Cyclobutyl(4,4,4-trifluorobutanamido)methyl)imidazo[1,2-b]pyridazin-2-yl)(4,4-difluorocyclohexyl)methyl)-1-(methyl-d3)-1H-pyrazole-5-carboxamide] | 95 | 65 | 
Cc1nonc1C(=O)N[C@H](c1cn2ncc(C(NC(=O)CC3CC(F)(F)C3)C3CCC3)cc2n1)C1CCC(F)(F)CC1 (single isomer, unassigned) [Example 493, N—((S)-(7-((R*)-Cyclobutyl(2-(3,3-difluorocyclobutyl)acetamido)methyl)imidazo[1,2-b]pyridazin-2-yl)(4,4-difluorocyclohexyl)methyl)-4-methyl-1,2,5-oxadiazole-3-carboxamide] |  | 79 | 120
Cc1nonc1C(=O)N[C@H](c1cn2ncc(C(NC(=O)CC3CC(F)(F)C3)C3CCC3)cc2n1)C1CCC(F)(F)CC1 (single isomer, unassigned) [Example 494, N—((S)-(7-((S*)-Cyclobutyl(2-(3,3-difluorocyclobutyl)acetamido)methyl)imidazo[1,2-b]pyridazin-2-yl)(4,4-difluorocyclohexyl)methyl)-4-methyl-1,2,5-oxadiazole-3-carboxamide] |  | 1000 | > 20000
[2H]C([2H])([2H])C([2H])([2H])n1nccc1C(=O)N[C@H](c1cn2ncc(C(NC(=O)CC3CC(F)(F)C3)C3CCC3)cc2n1)C1CCC(F)(F)CC1 (single isomer, unassigned) [Example 495, N—((S)-(7-((R*)-Cyclobutyl(2-(3,3-difluorocyclobutyl)acetamido)methyl)imidazo[1,2-b]pyridazin-2-yl)(4,4-difluorocyclohexyl)methyl)-1-(ethyl-d5)-1H-pyrazole-5-carboxamide] |  | 40 | 300
[2H]C([2H])([2H])C([2H])([2H])n1nccc1C(=O)N[C@H](c1cn2ncc(C(NC(=O)CC3CC(F)(F)C3)C3CCC3)cc2n1)C1CCC(F)(F)CC1 (single isomer, unassigned) [Example 496, N—((S)-(7-((S*)-Cyclobutyl(2-(3,3-difluorocyclobutyl)acetamido)methyl)imidazo[1,2-b]pyridazin-2-yl)(4,4-difluorocyclohexyl)methyl)-1-(ethyl-d5)-1H-pyrazole-5-carboxamide] |  | 690 | 10000
